Columns and labels:
Format in all cases: biochemical
Settings in all cases: 20 nM
PDE4B1 = target: T1, PDE4B1 (Homo sapiens, UniProt Q07343); test: PDE4 inhibitory activity assay (FAM-cAMP enzymatic reaction), PDE4B1
T1 construct: purchased BPS 60041
Procedure, shortened: (§1)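 Each isoform is incubated with test compound for 15 min at room temperature before FAM-cAMP substrate starts a 30-min reaction.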

PDE4D2 = PDE4D2 (Homo sapiens, UniProt Q08499); test: PDE4 inhibitory activity assay (FAM-cAMP enzymatic reaction), PDE4D2
Procedure, shortened: as §1

PDE4A1A = target: T2, PDE4A1A (Homo sapiens, UniProt P27815); test: PDE4 inhibitory activity assay (FAM-cAMP enzymatic reaction), PDE4A1A
T2 construct: purchased BPS 60040
Procedure, shortened: as §1

T2 sequence (P27815 1-647 isoform P27815-4): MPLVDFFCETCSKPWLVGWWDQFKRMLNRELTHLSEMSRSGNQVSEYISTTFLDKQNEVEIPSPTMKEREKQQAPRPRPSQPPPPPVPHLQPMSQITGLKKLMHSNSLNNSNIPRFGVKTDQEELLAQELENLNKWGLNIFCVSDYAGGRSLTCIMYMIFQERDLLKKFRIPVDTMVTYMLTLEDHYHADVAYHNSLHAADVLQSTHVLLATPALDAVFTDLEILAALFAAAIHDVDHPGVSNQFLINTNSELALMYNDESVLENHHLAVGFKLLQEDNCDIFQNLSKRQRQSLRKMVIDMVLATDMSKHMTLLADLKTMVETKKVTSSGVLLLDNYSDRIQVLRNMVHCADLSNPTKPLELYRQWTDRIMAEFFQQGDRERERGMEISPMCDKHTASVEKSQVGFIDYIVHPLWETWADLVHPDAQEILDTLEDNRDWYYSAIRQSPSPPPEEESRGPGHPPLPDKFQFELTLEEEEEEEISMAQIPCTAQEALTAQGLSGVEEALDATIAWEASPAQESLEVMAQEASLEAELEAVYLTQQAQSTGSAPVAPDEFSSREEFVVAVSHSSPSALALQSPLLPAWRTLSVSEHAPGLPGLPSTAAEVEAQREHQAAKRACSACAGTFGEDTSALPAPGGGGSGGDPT
T1 sequence (Q07343 whole entry): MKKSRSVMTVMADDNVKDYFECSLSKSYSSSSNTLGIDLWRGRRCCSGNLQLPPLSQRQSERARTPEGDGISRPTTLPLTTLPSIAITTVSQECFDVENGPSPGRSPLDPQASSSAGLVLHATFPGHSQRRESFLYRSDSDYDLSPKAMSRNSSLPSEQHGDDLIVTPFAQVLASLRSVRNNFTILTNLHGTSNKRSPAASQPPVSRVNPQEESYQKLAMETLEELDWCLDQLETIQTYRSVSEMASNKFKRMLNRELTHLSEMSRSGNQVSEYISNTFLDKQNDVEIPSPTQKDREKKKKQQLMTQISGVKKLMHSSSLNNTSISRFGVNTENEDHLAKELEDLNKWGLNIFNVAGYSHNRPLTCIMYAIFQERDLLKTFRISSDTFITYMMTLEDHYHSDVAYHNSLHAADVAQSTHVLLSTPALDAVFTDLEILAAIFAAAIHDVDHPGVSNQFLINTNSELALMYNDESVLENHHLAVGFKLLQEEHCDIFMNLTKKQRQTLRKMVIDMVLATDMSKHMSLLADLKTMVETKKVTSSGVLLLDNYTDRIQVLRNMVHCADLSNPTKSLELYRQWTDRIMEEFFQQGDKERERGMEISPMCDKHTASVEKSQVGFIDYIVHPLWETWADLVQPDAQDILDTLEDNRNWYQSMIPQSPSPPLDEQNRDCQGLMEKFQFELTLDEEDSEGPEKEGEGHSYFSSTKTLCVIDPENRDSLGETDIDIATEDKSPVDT
PDE4D2, sequence (Q08499 303-809): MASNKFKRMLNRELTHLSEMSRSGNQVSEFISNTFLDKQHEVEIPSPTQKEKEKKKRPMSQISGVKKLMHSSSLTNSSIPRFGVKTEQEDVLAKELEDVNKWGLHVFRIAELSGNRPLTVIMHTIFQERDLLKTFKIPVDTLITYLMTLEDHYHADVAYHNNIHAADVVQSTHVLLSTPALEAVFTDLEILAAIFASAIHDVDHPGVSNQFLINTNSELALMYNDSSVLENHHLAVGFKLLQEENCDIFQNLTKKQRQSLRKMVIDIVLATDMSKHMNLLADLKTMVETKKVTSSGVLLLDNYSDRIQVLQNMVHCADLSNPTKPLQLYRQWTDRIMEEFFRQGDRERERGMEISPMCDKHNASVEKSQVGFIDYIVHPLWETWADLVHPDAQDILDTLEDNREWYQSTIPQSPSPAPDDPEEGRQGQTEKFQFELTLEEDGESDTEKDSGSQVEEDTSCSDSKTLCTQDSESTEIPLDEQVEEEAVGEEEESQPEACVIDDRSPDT

SMILES | PDE4 B1 inhibitory effect at 20 nM (PDE4B1) | PDE4 D2 inhibitory effect at 20 nM (PDE4D2) | PDE4 A1 inhibitory effect at 20 nM (PDE4A1A)
CCOc1nc([C@@H](CS(C)(=O)=O)n2c(=O)n(CC(F)(F)F)c3c(C)c(-c4ccccc4C)cnc32)ccc1OC [Ex. 55, (S)-3-(1-(6-ethoxy-5-methoxypyridin-2-yl)-2-(methylsulfonyl)ethyl)-7-methyl-6-(o-methylphenyl)-1-(2,2,2-trifluoroethyl)-1H-imidazo[4,5-b]pyridin-2(3H)-one] | + | + | +
CCOc1nc([C@H](CS(C)(=O)=O)n2c(=O)[nH]c3c(C)c(-c4ccccc4C#N)cnc32)ccc1OC [Ex. 16, (R)-2-(3-(1-(6-ethoxy-5-methoxypyridin-2-yl)-2-(methylsulfonyl)ethyl)-7-methyl-2-oxo-2,3-dihydro-1H-imidazo[4,5-b]pyridin-6-yl)benzonitrile] | − | − | −
CCOc1nc([C@@H](CS(C)(=O)=O)n2c(=O)[nH]c3c(C)c(-c4cc(C)ccc4F)cnc32)ccc1OC [Ex. 38, (S)-6-(2-fluoro-5-methylphenyl)-3-(1-(6-ethoxy-5-methoxypyridin-2-yl)-2-(methylsulfonyl)ethyl)-7-methyl-1H-imidazo[4,5-b]pyridin-2(3H)-one] | + | + | +
CCOc1nc([C@@H](CS(C)(=O)=O)n2c(=O)n(CC)c3c(C)c(-c4ccc(F)cc4)cnc32)ccc1OC [Ex. 48, (S)-3-(1-(6-ethoxy-5-methoxypyridin-2-yl)-2-(methylsulfonyl)ethyl)-1-ethyl-6-(4-fluorophenyl)-7-methyl-1H-imidazo[4,5-b]pyridin-2(3H)-one] | + | + | +

Results, then the compound that gave them:

PDE4 B1 inhibitory effect at 20 nM (PDE4B1) | PDE4 D2 inhibitory effect at 20 nM (PDE4D2) | PDE4 A1 inhibitory effect at 20 nM (PDE4A1A) | SMILES
+ | + | + | CCOc1nc([C@@H](CS(C)(=O)=O)n2c(=O)n(C)c3cc(-c4ccc(OC)cc4F)ccc32)ccc1OC [Ex. 185, (S)-5-(2-fluoro-4-methoxyphenyl)-1-(1-(6-ethoxy-5-methoxypyridin-2-yl)-2-(methylsulfonyl)ethyl)-3-methyl-1H-benzo[d]imidazol-2(3H)-one]
+ | + | + | CCOc1nc([C@@H](CS(C)(=O)=O)n2c(=O)n(C)c3cc(-c4c(F)cccc4F)cnc32)ccc1OC [Ex. 89, (S)-6-(2,6-difluorophenyl)-3-(1-(6-ethoxy-5-methoxypyridin-2-yl)-2-(methylsulfonyl)ethyl)-1-methyl-1H-imidazo[4,5-b]pyridin-2(3H)-one]
